Reference: the NIST ThermoML archive (doi:10.1021/je1000796)
Numbers after ± are expanded uncertainties.

Assays:
[1] = mn = molality of the nth substance listed, in mol/kg; conditions: 101 kPa, Liquid, m2 = 0; for viscosity: Capillary tube (Ostwald / Ubbelohde) method
[2] = 101 kPa, Liquid; for viscosity: Capillary tube (Ostwald / Ubbelohde) method

Structure (SMILES)	viscosity ([1]; 278.15 K) [mPa·s]	mass density ([1]; 278.15 K) [kg/m3]	viscosity ([1]; 283.15 K) [mPa·s]	mass density ([1]; 283.15 K) [kg/m3]	viscosity ([1]; 288.15 K) [mPa·s]	mass density ([1]; 288.15 K) [kg/m3]	viscosity ([1]; 293.15 K) [mPa·s]	mass density ([1]; 293.15 K) [kg/m3]	viscosity ([1]; 298.15 K) [mPa·s]	mass density ([1]; 298.15 K) [kg/m3]	viscosity ([1]; 303.15 K) [mPa·s]	mass density ([1]; 303.15 K) [kg/m3]	viscosity ([1]; 308.15 K) [mPa·s]	mass density ([1]; 308.15 K) [kg/m3]	viscosity ([1]; 313.15 K) [mPa·s]	mass density ([1]; 313.15 K) [kg/m3]	mass density ([2]; 278.15 K) [kg/m3]	viscosity ([2]; 278.15 K) [mPa·s]	mass density ([2]; 283.15 K) [kg/m3]	viscosity ([2]; 283.15 K) [mPa·s]	other results
CO [methanol] + COC(=O)[C@H](c1ccccc1Cl)N1CCc2sccc2C1.O=S(=O)(O)O	0.7418 ± 0.0065	803 ± 0.9	0.689 ± 0.0061	798.9 ± 0.8	0.641 ± 0.0057	795.2 ± 0.8	0.599 ± 0.0054	792.1 ± 0.9	0.5585 ± 0.005	787.9 ± 0.8	0.5199 ± 0.0047	783.7 ± 0.8	0.4857 ± 0.0044	779.5 ± 0.9	0.4559 ± 0.0042	775.2 ± 0.9	–	–	–	–	–
CO [methanol]	–	–	–	–	–	–	–	–	–	–	–	–	–	–	–	–	803 ± 0.9	0.7418 ± 0.0065	798.9 ± 0.8	0.689 ± 0.0061	mass density ([2]; 288.15 K): 795.2 ± 0.8 kg/m3; viscosity ([2]; 288.15 K): 0.641 ± 0.0057 mPa·s; mass density ([2]; 293.15 K): 792.1 ± 0.9 kg/m3; viscosity ([2]; 293.15 K): 0.599 ± 0.0054 mPa·s; mass density ([2]; 298.15 K): 787.9 ± 0.8 kg/m3; viscosity ([2]; 298.15 K): 0.5585 ± 0.005 mPa·s; mass density ([2]; 303.15 K): 783.7 ± 0.8 kg/m3; viscosity ([2]; 303.15 K): 0.5199 ± 0.0047 mPa·s; mass density ([2]; 308.15 K): 779.5 ± 0.9 kg/m3; viscosity ([2]; 308.15 K): 0.4857 ± 0.0044 mPa·s; mass density ([2]; 313.15 K): 775.2 ± 0.9 kg/m3; viscosity ([2]; 313.15 K): 0.4559 ± 0.0042 mPa·s
CCO [ethanol]	–	–	–	–	–	–	–	–	–	–	–	–	–	–	–	–	800.5 ± 1	1.629 ± 0.014	797.8 ± 1	1.474 ± 0.013	mass density ([2]; 288.15 K): 793.9 ± 0.8 kg/m3; viscosity ([2]; 288.15 K): 1.333 ± 0.011 mPa·s; mass density ([2]; 293.15 K): 790 ± 0.9 kg/m3; viscosity ([2]; 293.15 K): 1.21 ± 0.01 mPa·s; mass density ([2]; 298.15 K): 785.7 ± 0.9 kg/m3; viscosity ([2]; 298.15 K): 1.099 ± 0.0094 mPa·s; mass density ([2]; 303.15 K): 780.9 ± 0.9 kg/m3; viscosity ([2]; 303.15 K): 0.9971 ± 0.0086 mPa·s; mass density ([2]; 308.15 K): 778 ± 1.2 kg/m3; viscosity ([2]; 308.15 K): 0.9083 ± 0.0079 mPa·s; mass density ([2]; 313.15 K): 773.3 ± 1 kg/m3; viscosity ([2]; 313.15 K): 0.828 ± 0.0072 mPa·s
CCO [ethanol] + COC(=O)[C@H](c1ccccc1Cl)N1CCc2sccc2C1.O=S(=O)(O)O	1.629 ± 0.014	800.5 ± 1	1.474 ± 0.013	797.8 ± 1	1.333 ± 0.011	793.9 ± 0.8	1.21 ± 0.01	790 ± 0.9	1.099 ± 0.0094	785.7 ± 0.9	0.9971 ± 0.0086	780.9 ± 0.9	0.9083 ± 0.0079	778 ± 1.2	0.828 ± 0.0072	773.3 ± 1	–	–	–	–	–
